Source: patent US11292787B2, “Five-membered-fused-six-membered aza-aromatic ring compound, preparation method thereof, pharmaceutical composition and application thereof” (XIAMEN UNIVERSITY, priority 2017, dated 2022)

Biological target: T1, K-Ras protein (Homo sapiens, UniProt P01116, G12V)
T1 construct: in SW620 cells, compound I-a-1 can effectively enhance the degradation of endogenous K-RAS-G12V proteins; endogenous in cells; host or cells: SW-620
Experiment: K-Ras protein degradation rate by Western blot in SW-620 cells
Format: cell-based
Conditions: 10 μM, SW-620 cells, 24 h, Western blot, relative to DMSO control; read-out: Degradation rate of compounds at 10 μM on Ras protein (%)
Method: Inhibitory activity of compounds on K-RAS was evaluated by the degradation rate of protein level of administration group relative to control group (Cell Rep 2014, 7, 871-882).
The specific method was as follows:
1. Cell plating: SW-620 cells in logarithmic growth phase were inoculated into a 24-well plate at 2×10^4/well, and cultured in a 37° C., 5% CO2 incubator.
2. Administering drug to cells: after 24 h of culture, various drug stocks […]; the original solution in the 24-well plate was discarded, to which was added the obtained drug solution, with the DMSO group as the blank control; after the drug solution was added, the 24-well plate was transferred to the 37° C. CO2 incubator to continue the culture.
3. Detection of K-Ras protein level: after 24 h of administration and culture, the liquid in the well was discarded, the cells were routinely collected, and rinsed twice with 1×PBS, a cell lysate was added to extract the total cellular protein, and the protein concentration was determined by BCA method. 30 μg of the protein sample was taken for SDS-polyacrylamide gel electrophoretic transmembrane, the membrane was blocked sequentially, incubated with K-Ras antibody (1:1000) and internal reference antibody β-actin (1:2000) respectively overnight at 4° C., rinsed with TBST for 5 min×3 times, then incubated with the addition of the corresponding horseradish peroxidase-labeled secondary antibody (1:5000) for 1-2 h, and rinsed with TBST for 5 min×3 times. Finally, chemiluminescence image was acquired using Image Lab software.
4. Calculation of single-point K-Ras protein degradation rate: quantitative and calibration analysis of K-Ras and β-actin were conducted using Image-Lab software, and then the intracellular K-Ras degradation rate was calculated according to the following formula: single-point K-Ras protein degradation rate (%)=(control group−administration group)/control group×100%. The drug with degradation rate ≥20% was selected for soft agar experiment.

T1 sequence (P01116 1-188 isoform P01116-2 G12V): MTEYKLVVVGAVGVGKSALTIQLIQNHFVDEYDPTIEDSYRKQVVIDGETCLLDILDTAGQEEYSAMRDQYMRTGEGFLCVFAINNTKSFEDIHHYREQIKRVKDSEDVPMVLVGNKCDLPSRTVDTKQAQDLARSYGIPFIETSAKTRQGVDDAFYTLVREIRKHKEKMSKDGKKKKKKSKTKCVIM

| percent K-Ras protein degradation (single point) at 10 µM | SMILES |
| --- | --- |
| 12% | O=S(=O)(NCc1c(F)cccc1Cl)c1c[nH]c(-c2n[nH]c3ncccc23)c1 [III-g-4] |
| 14% | O=S(=O)(Cc1ccccc1)c1c[nH]c(-c2n[nH]c3ncccc23)c1 [III-h-1] |
| 18% | O=S(=O)(Cc1c(Cl)cccc1Cl)c1c[nH]c(-c2n[nH]c3ncccc23)c1 [III-h-3] |
| 41% | O=S(=O)(Cc1c(F)cccc1Cl)c1c[nH]c(-c2n[nH]c3ncccc23)c1 [III-h-4] |
| 16% | O=S(=O)(Cc1ccc(Cl)cc1)c1c[nH]c(-c2n[nH]c3ncccc23)c1 [III-h-5] |
| 10% | O=C(NCc1c(F)cccc1Cl)c1csc(-c2c[nH]c3ccccc23)c1 [IV-a-1] |
| 50% | O=C(Nc1ccccc1)c1csc(-c2c[nH]c3ccccc23)c1 [IV-a-2] |
| 35% | O=C(NC1CCCCC1)c1csc(-c2c[nH]c3ccccc23)c1 [IV-a-3] |
| 30% | O=C(NCc1c(F)cccc1Cl)c1coc(-c2c[nH]c3ccccc23)c1 [IV-c-1] |
| 50% | O=C(Nc1ccccc1)c1coc(-c2c[nH]c3ccccc23)c1 [IV-c-2] |
| 30% | O=C(NCc1c(F)cccc1Cl)c1ccc(-c2c[nH]c3ccccc23)cc1 [IV-e-1] |
| 20% | O=C(Nc1ccccc1)c1ccc(-c2c[nH]c3ccccc23)cc1 [IV-e-2] |
| 40% | O=C(NC1CCCCC1)c1ccc(-c2c[nH]c3ccccc23)cc1 [IV-e-3] |
| 10% | O=C(NCc1c(F)cccc1Cl)c1ccc(-c2c[nH]c3ccccc23)s1 [IV-f-1] |
| 40% | O=C(NCc1c(F)cccc1Cl)c1coc(-c2cnc3ccccn23)c1 [IX-c-1] |
| 40% | O=C(Nc1ccccc1)c1coc(-c2cnc3ccccn23)c1 [IX-c-2] |
| 30% | O=C(NCc1c(F)cccc1Cl)c1cccc(-c2cnc3ccccn23)c1 [IX-d-1] |
| 40% | O=C(NCc1c(F)cccc1Cl)c1ccc(-c2cnc3ccccn23)cc1 [IX-e-1] |
| 50% | O=C(Nc1ccccc1)c1ccc(-c2cnc3ccccn23)cc1 [IX-e-2] |
| 50% | O=C(NCc1c(F)cccc1Cl)c1ccc(-c2cnc3ccccn23)s1 [IX-f-1] |
| 30% | CC(C)(C)n1nc(-c2cc(C(=O)Nc3ccccc3)cs2)c2c(N)ncnc21 [VI-a-2] |
| 30% | CC(C)(C)n1nc(-c2cccc(C(=O)NCc3c(F)cccc3Cl)c2)c2c(N)ncnc21 [VI-d-1] |
| 30% | CC(C)(C)n1nc(-c2cccc(C(=O)Nc3ccccc3)c2)c2c(N)ncnc21 [VI-d-2] |
| 5% | O=C(NCc1c(F)cccc1Cl)c1csc(-c2cnc3cnccn23)c1 [VII-a-1] |
| 60% | O=C(NCc1cccc(C(F)(F)F)c1)c1csc(-c2cnc3cnccn23)c1 [VII-a-2] |

| percent K-Ras protein degradation (single point) at 10 µM | SMILES |
| --- | --- |
| 30% | O=C(NCc1cc(C(F)(F)F)ccc1F)c1csc(-c2cnc3cnccn23)c1 [VII-a-3] |
| 20% | O=C(NCc1c(F)cccc1Cl)c1c[nH]c(-c2cnc3cnccn23)c1 [VII-b-1] |
| 20% | O=C(Nc1ccccc1)c1c[nH]c(-c2cnc3cnccn23)c1 [VII-b-2] |
| 10% | O=C(NC1CCCCC1)c1c[nH]c(-c2cnc3cnccn23)c1 [VII-b-3] |
| 30% | O=C(NCc1c(F)cccc1Cl)c1ccc(-c2cnc3cnccn23)cc1 [VII-e-1] |
| 20% | O=C(Nc1ccccc1)c1ccc(-c2cnc3cnccn23)cc1 [VII-e-2] |
| 30% | O=C(NC1CCCCC1)c1ccc(-c2cnc3cnccn23)cc1 [VII-e-3] |
| 25% | O=C(NCc1c(F)cccc1Cl)c1ccc(-c2cnc3cnccn23)s1 [VII-f-1] |
| 30% | O=C(Nc1ccccc1)c1ccc(-c2cnc3cnccn23)s1 [VII-f-2] |
| 20% | O=C(NC1CCCCC1)c1ccc(-c2cnc3cnccn23)s1 [VII-f-3] |
| 40% | O=C(NCc1c(F)cccc1Cl)c1csc(-c2cnc3cccnn23)c1 [VIII-a-1] |
| 60% | O=C(NCc1cccc(C(F)(F)F)c1)c1csc(-c2cnc3cccnn23)c1 [VIII-a-2] |
| 50% | O=C(NCc1cc(C(F)(F)F)ccc1F)c1csc(-c2cnc3cccnn23)c1 [VIII-a-3] |
| 20% | O=C(NCc1c(F)cccc1Cl)c1c[nH]c(-c2cnc3cccnn23)c1 [VIII-b-1] |
| 10% | O=C(Nc1ccccc1)c1c[nH]c(-c2cnc3cccnn23)c1 [VIII-b-2] |
| 2% | O=C(NC1CCCCC1)c1c[nH]c(-c2cnc3cccnn23)c1 [VIII-b-3] |
| 12% | O=C(NCc1c(F)cccc1Cl)c1coc(-c2cnc3cccnn23)c1 [VIII-c-1] |
| 10% | O=C(Nc1ccccc1)c1coc(-c2cnc3cccnn23)c1 [VIII-c-2] |
| 2% | O=C(NCc1c(F)cccc1Cl)c1cccc(-c2cnc3cccnn23)c1 [VIII-d-1] |
| 20% | O=C(NC1CCCCC1)c1ccc(-c2cnc3cccnn23)cc1 [VIII-e-3] |
| 15% | O=C(NC1CCCCC1)c1ccc(-c2cnc3cccnn23)s1 [VIII-f-3] |
| 10% | O=C(NCc1c(F)cccc1Cl)c1coc(-c2nnc3ccccn23)c1 [X-c-1] |
| 10% | O=C(NCc1c(F)cccc1Cl)c1ccc(-c2nnc3ccccn23)cc1 [X-e-1] |
| 20% | O=C(NCc1c(F)cccc1Cl)c1ccc(-c2nnc3ccccn23)s1 [X-f-1] |
